Measured values from patent US12427125B2 (priority 2020, dated 2025).
Like-named read-outs stand apart in the source and are kept apart here.

Assays:
female CD-1 mice [1] = details: for BALF Protein Concentration Mean / BALF Protein Conc. Mean / Total Neutrophil Count per Lavage, Mean: group mean
Description: The protocols obtained 30 or 18 female CD-1 mice (Charles River Lab) and monitored daily for body condition and health status during the 3-5 days acclimation period.
At time 0, the mice were weighed. LPS was prepared 1 mg LPS in 1 ml phosphate buffered saline (PBS) to get a final concentration of 1 mg/mL. Dosed 50 μl intratracheally to the mice at time 0. For the N=30 or 18 mice in an incubator, temperature was set to achieve a core temperature of 39° C. as measured by a calibrated thermometer inserted through the top lid of the incubator with the bulb at the level of the mouse cages in the incubator (set temperature knob at 36.7° C.). In addition, a rectal probe to confirmed core temperature in the mice (check right before sacrifice at 24 h post LPS). All mice were given access to food and water at all time. Treatment was initiated three days prior to LPS dosing.
For anesthesia and LPS Dosing, mice were placed in a bell jar, with isoflurane-soaked gauze separated from the mouse by a screen and keep within a scrubber (so the operator isn't anesthetized). Monitored respiratory rate of each mouse and when reduced by half (usually within 5 seconds of going down), then take the mouse out. Each mouse was suspended from incisors across a string tied between two screws on a Plexiglas board and kept at about 70 degrees. Using blunt forceps, grabbed the tongue and hold extended, then instill 50 μL of the LPS solution into the oropharynx using a PennCentury needle/areosolizer. […] Mouse kept in this position for 5-10 seconds to allow distribution of the LPS, then returned to their cage.
Bronchoalveolar lavage fluid (BALF) was collected using rounded tip scissors make a vertical incision though skin but not peritoneum from the lower abdomen up to the jaw. Using two forceps grabbed the edge of the skin and pull apart to get wide exposure to underlying peritoneum and thoracic connective tissue/muscle. Using forceps, picked up peritoneum near the mid abdomen and with rounded tip scissors made a small incision in the peritoneum (avoid cutting gut). Then, while holding the upper edge of the peritoneum, used the rounded tip scissors to extend the incision diagonally to the left upper and right upper quadrants. Moved the liver and intestines out of the way so you can see the underside of the diaphragms. Using the rounded tip scissors, nibbled up toward the diaphragm until you can see the lungs on the other side pull away. Repeated on the other side, being careful to not nick the lungs or else you will not be able to recover lavage. Using the rounded tip scissors, cut through the diaphragm where it inserts on the anterior chest wall. Using the rounded tip scissors and taking care to avoid nicking the lung by moving it away with blunt forceps, cut through the chest wall laterally on both sides until you reach the top of the thorax, then cut across the midline at the top to remove the anterior chest wall. Using forceps pull upward on the heart and cut through at its base to remove. Using the rounded tip scissors, remove the fat pads overlying the trachea taking care not to nick the trachea. Using the rounded tip scissors inserted next to the trachea from the top of the thoracic cavity and kept next to and parallel to the trachea, make a single cut, which allowed removal of the rest of the soft tissue from the trachea but pulling over to the other side and carefully trimming to avoid nicking the trachea. Using sharp forceps carefully placed posterior to the trachea pull suture behind the trachea about 4-5 mm below the cricoid and made a very loose surgical knot (two loops around). Using ophthalmic scissors, very carefully made a cut through the anterior half of the trachea just below the cricoid. Inserted a short blunt needle into tracheal so the tip extended about 5-6 mm below the cricoid and tied a suture tightly with a second knot.

CD-1 mice = details: for Tolerability: mouse, in vivo
female CD-1 mice [2] = system: female CD-1 mice
[3] = system: adult patients infected by SARS-CoV-19 (COVID-19); details: oral DA 30, 60 or 100 mg/kg BID for up to ten days; paper example

CC(=O)[O-].CC[N+](CC)(CC(=O)Nc1c(C)cccc1C)Cc1ccccc1 [DA, Denatonium acetate]
BALF Protein Concentration Mean (female CD-1 mice [1]; first study, DA 3 mg/kg IV QD): 0.638 mg/mL | BALF Protein Concentration Mean (female CD-1 mice [1]; first study, DA 92.4 mg/kg PO BID): 0.428 mg/mL | Effect on BALF protein concentration, in words (female CD-1 mice [1]; first study, PO 92.4 mg/kg BID compared with iv 3 mg/kg QD, Table 3, FIG. 1): Only oral administration was effective | BALF Protein Conc. Mean (female CD-1 mice [1]; second study, DA 3 mg/kg IP QD): 0.727 mg/mL | Total Neutrophil Count per Lavage, Mean (female CD-1 mice [1]; second study, DA 3 mg/kg IP): 610,900 | BALF Protein Conc. Mean (female CD-1 mice [1]; second study, DA 92.4 mg/kg PO BID): 0.986 mg/mL | Total Neutrophil Count per Lavage, Mean (female CD-1 mice [1]; second study, DA 92.4 mg/kg PO): 535,080 | Effect on BALF total neutrophil count, in words (female CD-1 mice [1]; second study, PO 92.4 mg/kg compared with ip 3 mg/kg, Table 5, FIG. 2): Only oral administration was effective | Changes in BALF protein concentrations, in words (female CD-1 mice [1]; second study, oral and IP dosing, Table 4): nominal (but non-significant) changes | Other adverse clinical observations (CD-1 mice; first study, during 3 days of test article administration): No other adverse clinical observations were noted | Tolerability (CD-1 mice; iv, 3 mg/kg): well-tolerated | Tolerability (CD-1 mice; po, 92.4 mg/kg): well-tolerated | Mice found dead on Day 1 (within 24 h after LPS instillation) (female CD-1 mice [2]; mouse, in vivo): one | Tolerability (female CD-1 mice [2]; mouse, in vivo, ip, 3 mg/kg): well-tolerated | Tolerability (female CD-1 mice [2]; mouse, in vivo, po, 92.4 mg/kg): well-tolerated | Other adverse clinical observations (female CD-1 mice [2]; second study, during 3 days of test article administration): No other adverse clinical observations were noted | Decrease in adult respiratory distress syndrome (ARDS), including chronic pulmonary function, diffusion capacity and lung compliance [3]: ≥ 20% | Decrease in mortality [3]: ~40% | Patient tolerance [3]: adequate patient tolerance
